Laboratory results published in patent publication US20220135591A1, “HETEROCYCLIC COMPOUNDS AS INHIBITORS OF MONOACYLGLYCEROL LIPASE (MAGL)” (Hoffmann-La Roche Inc., priority 2019, published 2022).

The compounds below were run against T1, MAGL (Homo sapiens, UniProt Q99685) (assay: 2-AG assay: MAGL inhibitory activity by hydrolysis of 2-arachidonoylglycerol to arachidonic acid, mass spectrometry). Details: 2-AG assay (values marked [b]).
T1 sequence (Q99685 1-303): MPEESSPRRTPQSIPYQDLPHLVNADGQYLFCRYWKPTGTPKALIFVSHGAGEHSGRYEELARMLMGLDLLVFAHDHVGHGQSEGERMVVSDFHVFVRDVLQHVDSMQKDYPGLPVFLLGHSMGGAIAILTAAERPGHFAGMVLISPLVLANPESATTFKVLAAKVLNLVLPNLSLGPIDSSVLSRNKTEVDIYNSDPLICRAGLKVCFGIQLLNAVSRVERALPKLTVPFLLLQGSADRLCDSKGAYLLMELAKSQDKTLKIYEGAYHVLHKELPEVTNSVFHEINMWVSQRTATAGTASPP
Assay type: biochemical
How it was run: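 Hydrolysis of 8 μM 2-arachidonoylglycerol by […] was run for 30 min at RT after a 15 min compound preincubation, in Tris/EDTA/Tween buffer. Test compounds spanned […]. The product was measured by online SPE-MS/MS (transitions 303.1→259.1 and 311.1→267.0), and activity was derived from the arachidonic acid/d8-arachidonic acid signal ratio.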

| Structure (SMILES) | IC50 |
| --- | --- |
| Cc1cc(C(=O)N2CCN(c3nc4nc(Cl)ccc4o3)CC2)cnc1OCC1CC1 [Example 155, (4-(5-chlorooxazolo[4,5-b]pyridin-2-yl)piperazin-1-yl)(6-(cyclopropylmethoxy)-5-methylpyridin-3-yl)methanone] | 90 nM |
| Cc1cc(C(=O)N2CCN(c3nc4nc(Cl)ccc4o3)CC2)cnc1OCC1(C)CC1 [Example 156, (4-(5-chlorooxazolo[4,5-b]pyridin-2-yl)piperazin-1-yl)(5-methyl-6-((1-methylcyclopropyl)methoxy)pyridin-3-yl)methanone] | 21 nM |
| Cc1cc(C(=O)N2CCN(c3nc4nc(Cl)ccc4o3)CC2)cnc1OCC1(C)COC1 [Example 157, (4-(5-chlorooxazolo[4,5-b]pyridin-2-yl)piperazin-1-yl)(5-methyl-6-((3-methyloxetan-3-yl)methoxy)pyridin-3-yl)methanone] | 317 nM |
| Cc1cc(C(=O)N2CCN(c3nc4nc(Cl)ccc4o3)CC2)cnc1OCC1(C)CC1(F)F (stereo not drawn) [Example 158, (4-(5-chlorooxazolo[4,5-b]pyridin-2-yl)piperazin-1-yl)(6-((2,2-difluoro-1-methylcyclopropyl)methoxy)-5-methylpyridin-3-yl)methanone] | 11 nM |
| CCC1(COc2ncc(C(=O)N3CCN(c4nc5nc(Cl)ccc5o4)CC3)cc2C)COC1 [Example 159, (4-(5-chlorooxazolo[4,5-b]pyridin-2-yl)piperazin-1-yl)(6-((3-ethyloxetan-3-yl)methoxy)-5-methylpyridin-3-yl)methanone] | 117 nM |
| COCC1(COc2ncc(C(=O)N3CCN(c4nc5nc(Cl)ccc5o4)CC3)cc2C)CC1 [Example 160, (4-(5-chlorooxazolo[4,5-b]pyridin-2-yl)piperazin-1-yl)(6-((1-(methoxymethyl)cyclopropyl)methoxy)-5-methylpyridin-3-yl)methanone] | 295 nM |
| Cc1cc(C(=O)N2CCN(c3nc4nc(Cl)ccc4o3)CC2)cnc1OCC1(F)COC1 [Example 161, (4-(5-chlorooxazolo[4,5-b]pyridin-2-yl)piperazin-1-yl)(6-((3-fluorooxetan-3-yl)methoxy)-5-methylpyridin-3-yl)methanone] | 906 nM |
| Cc1cc(C(=O)N2CCN(c3nc4nc(Cl)ccc4o3)CC2)cnc1OCC1(CC#N)CC1 [Example 162, 2-(1-(((5-(4-(5-chlorooxazolo[4,5-b]pyridin-2-yl)piperazine-1-carbonyl)-3-methylpyridin-2-yl)oxy)methyl)cyclopropyl)acetonitrile] | 230 nM |
| Cc1cc(C(=O)N2CCN(c3nc4nc(Cl)ccc4o3)CC2)cnc1OCC1(C#N)CC1 [Example 163, 1-(((5-(4-(5-chlorooxazolo[4,5-b]pyridin-2-yl)piperazine-1-carbonyl)-3-methylpyridin-2-yl)oxy)methyl)cyclopropane-1-carbonitrile] | 677 nM |
| Cc1cc(C(=O)N2CCN(c3nc4nc(Cl)ccc4o3)CC2)cnc1OCC1(C#N)COC1 [Example 164, 3-(((5-(4-(5-chlorooxazolo[4,5-b]pyridin-2-yl)piperazine-1-carbonyl)-3-methylpyridin-2-yl)oxy)methyl)oxetane-3-carbonitrile] | 1540 nM |
| Cc1cc(C(=O)N2CCN(c3nc4nc(Cl)ccc4o3)CC2)cnc1OCc1cc(F)cc(C#N)c1 [Example 165, 3-(((5-(4-(5-chlorooxazolo[4,5-b]pyridin-2-yl)piperazine-1-carbonyl)-3-methylpyridin-2-yl)oxy)methyl)-5-fluorobenzonitrile] | 42 nM |
| Cc1cc(C(=O)N2CCN(c3nc4nc(Cl)ccc4o3)CC2)cnc1OCC1CCCO1 (stereo not drawn) [Example 166, (4-(5-chlorooxazolo[4,5-b]pyridin-2-yl)piperazin-1-yl)(5-methyl-6-((tetrahydrofuran-2-yl)methoxy)pyridin-3-yl)methanone] | 475 nM |
| Cc1ccc2oc(N3CCN(C(=O)c4cnc(OCC5(C(F)(F)F)CC5)c(C)n4)CC3)nc2n1 [Example 167, [4-(5-methyloxazolo[4,5-b]pyridin-2-yl)piperazin-1-yl]-[6-methyl-5-[[1-(trifluoromethyl)cyclopropyl]methoxy]pyrazin-2-yl]methanone] | 63 nM |
| Cc1cc(C(=O)N2CCN(c3nc4nc(Cl)ccc4o3)CC2)cnc1OCC1CCO1 (stereo not drawn) [Example 168, (4-(5-chlorooxazolo[4,5-b]pyridin-2-yl)piperazin-1-yl)(5-methyl-6-(oxetan-2-ylmethoxy)pyridin-3-yl)methanone] | 1750 nM |
| COc1cc(C(=O)N2CCN(c3nc4nc(C)ccc4o3)CC2)cnc1OCC1(C(F)(F)F)CC1 [Example 169, [5-methoxy-6-[[1-(trifluoromethyl)cyclopropyl]methoxy]-3-pyridyl]-[4-(5-methyloxazolo[4,5-b]pyridin-2-yl)piperazin-1-yl]methanone] | 138 nM |
| Cc1cc(C(=O)N2CCN(c3nc4nc(Cl)ccc4o3)CC2)cnc1OCC1CCCCO1 (stereo not drawn) [Example 170, (4-(5-chlorooxazolo[4,5-b]pyridin-2-yl)piperazin-1-yl)(5-methyl-6-((tetrahydro-2H-pyran-2-yl)methoxy)pyridin-3-yl)methanone] | 57 nM |
| COC1(COc2ncc(C(=O)N3CCN(c4nc5nc(Cl)ccc5o4)CC3)cc2C)CC1 [Example 171, (4-(5-chlorooxazolo[4,5-b]pyridin-2-yl)piperazin-1-yl)(6-((1-methoxycyclopropyl)methoxy)-5-methylpyridin-3-yl)methanone] | 188 nM |
| Cc1cc(C(=O)N2CCN(c3nc4nc(Cl)ccc4o3)CC2)cnc1OC[C@H](F)CF [Example 172, (S)-(4-(5-chlorooxazolo[4,5-b]pyridin-2-yl)piperazin-1-yl)(6-(2,3-difluoropropoxy)-5-methylpyridin-3-yl)methanone] | 978 nM |

Results, then the compound that gave them:

| IC50 | Structure (SMILES) |
| --- | --- |
| 135 nM | Cc1cc(C(=O)N2CCN(c3nc4nc(Cl)ccc4o3)CC2)cnc1OCCC(F)(F)F [Example 173, (4-(5-chlorooxazolo[4,5-b]pyridin-2-yl)piperazin-1-yl)(5-methyl-6-(3,3,3-trifluoropropoxy)pyridin-3-yl)methanone] |
| 706 nM | Cc1cc(C(=O)N2CCN(c3nc4nc(Cl)ccc4o3)CC2)cnc1OC[C@@H](F)CF [Example 174, (R)-(4-(5-chlorooxazolo[4,5-b]pyridin-2-yl)piperazin-1-yl)(6-(2,3-difluoropropoxy)-5-methylpyridin-3-yl)methanone] |
| 46 nM | Cc1cc(C(=O)N2CCN(c3nc4nc(Cl)ccc4o3)CC2)cnc1-c1cnn(C(C)(C)C)c1 [Example 190, [6-(1-tert-butylpyrazol-4-yl)-5-methylpyridin-3-yl]-[4-(5-chloro-[1,3]oxazolo[4,5-b]pyridin-2-yl)piperazin-1-yl]methanone] |
| 98 nM | Cc1ccc2oc(N3CCN(C(=O)c4cnc(-c5cnn(C(C)(C)C)c5)c(C)c4)CC3)nc2n1 [Example 191, [6-(1-tert-butylpyrazol-4-yl)-5-methylpyridin-3-yl]-[4-(5-methyl-[1,3]oxazolo[4,5-b]pyridin-2-yl)piperazin-1-yl]methanone] |
| 4 nM | Cc1cc(C(=O)N2CCN(c3nc4nc(Cl)ccc4o3)CC2)ccc1-c1cn(CC(C)(C)C)nn1 [Example 231, (4-(5-chlorooxazolo[4,5-b]pyridin-2-yl)piperazin-1-yl)(3-methyl-4-(1-neopentyl-1H-1,2,3-triazol-4-yl)phenyl)methanone] |
| 1 nM | Cc1cc(C(=O)N2CCN(c3nc4nc(Cl)ccc4o3)CC2)ccc1-c1cnn(CC(C)(C)C)n1 [Example 232, (4-(5-chlorooxazolo[4,5-b]pyridin-2-yl)piperazin-1-yl)(3-methyl-4-(2-neopentyl-2H-1,2,3-triazol-4-yl)phenyl)methanone] |
| 20 nM | CC(C)(C)Cn1cc(-c2ccc(C(=O)N3CCN(c4nc5nc(Cl)ccc5o4)CC3)cc2C#N)nn1 [Example 233, 5-(4-(5-chlorooxazolo[4,5-b]pyridin-2-yl)piperazine-1-carbonyl)-2-(1-neopentyl-1H-1,2,3-triazol-4-yl)benzonitrile] |
| 10 nM | CC(C)(C)Cn1ncc(-c2ccc(C(=O)N3CCN(c4nc5nc(Cl)ccc5o4)CC3)cc2C#N)n1 [Example 234, 5-(4-(5-chlorooxazolo[4,5-b]pyridin-2-yl)piperazine-1-carbonyl)-2-(2-neopentyl-2H-1,2,3-triazol-4-yl)benzonitrile] |
| 104 nM | Cc1ccc2oc(N3CCN(C(=O)c4ccc(-c5cn(CC(C)(C)C)nn5)c(C#N)c4)CC3)nc2n1 [Example 235, 5-(4-(5-methyloxazolo[4,5-b]pyridin-2-yl)piperazine-1-carbonyl)-2-(1-neopentyl-1H-1,2,3-triazol-4-yl)benzonitrile] |
| 33 nM | Cc1ccc2oc(N3CCN(C(=O)c4ccc(-c5cnn(CC(C)(C)C)n5)c(C#N)c4)CC3)nc2n1 [Example 236, 5-(4-(5-methyloxazolo[4,5-b]pyridin-2-yl)piperazine-1-carbonyl)-2-(2-neopentyl-2H-1,2,3-triazol-4-yl)benzonitrile] |
| 7 nM | COc1cc(C(=O)N2CCN(c3nc4nc(Cl)ccc4o3)CC2)ccc1-c1cn(CC(C)(C)C)nn1 [Example 237, (4-(5-chlorooxazolo[4,5-b]pyridin-2-yl)piperazin-1-yl)(3-methoxy-4-(1-neopentyl-1H-1,2,3-triazol-4-yl)phenyl)methanone] |
| 1 nM | COc1cc(C(=O)N2CCN(c3nc4nc(Cl)ccc4o3)CC2)ccc1-c1cnn(CC(C)(C)C)n1 [Example 238, (4-(5-chlorooxazolo[4,5-b]pyridin-2-yl)piperazin-1-yl)(3-methoxy-4-(2-neopentyl-2H-1,2,3-triazol-4-yl)phenyl)methanone] |
